Laboratory results: US12404260B2, “Pyridine rings containing derivatives as MALT1 inhibitors” (Janssen Pharmaceutica NV, priority 2019, dated 2025)

Molecular target: T1, full-length MALT1 protein (Strep-MALT1(1-824)-His) (Homo sapiens, UniProt Q9UDY8)
T1 construct: full-length MALT1 protein (Strep-MALT1(1-824)-His) purified from baculovirus-infected insect cells; Strep (N); His (C); made in house; host or cells: baculovirus-infected insect cells
T1 sequence (Q9UDY8 1-824): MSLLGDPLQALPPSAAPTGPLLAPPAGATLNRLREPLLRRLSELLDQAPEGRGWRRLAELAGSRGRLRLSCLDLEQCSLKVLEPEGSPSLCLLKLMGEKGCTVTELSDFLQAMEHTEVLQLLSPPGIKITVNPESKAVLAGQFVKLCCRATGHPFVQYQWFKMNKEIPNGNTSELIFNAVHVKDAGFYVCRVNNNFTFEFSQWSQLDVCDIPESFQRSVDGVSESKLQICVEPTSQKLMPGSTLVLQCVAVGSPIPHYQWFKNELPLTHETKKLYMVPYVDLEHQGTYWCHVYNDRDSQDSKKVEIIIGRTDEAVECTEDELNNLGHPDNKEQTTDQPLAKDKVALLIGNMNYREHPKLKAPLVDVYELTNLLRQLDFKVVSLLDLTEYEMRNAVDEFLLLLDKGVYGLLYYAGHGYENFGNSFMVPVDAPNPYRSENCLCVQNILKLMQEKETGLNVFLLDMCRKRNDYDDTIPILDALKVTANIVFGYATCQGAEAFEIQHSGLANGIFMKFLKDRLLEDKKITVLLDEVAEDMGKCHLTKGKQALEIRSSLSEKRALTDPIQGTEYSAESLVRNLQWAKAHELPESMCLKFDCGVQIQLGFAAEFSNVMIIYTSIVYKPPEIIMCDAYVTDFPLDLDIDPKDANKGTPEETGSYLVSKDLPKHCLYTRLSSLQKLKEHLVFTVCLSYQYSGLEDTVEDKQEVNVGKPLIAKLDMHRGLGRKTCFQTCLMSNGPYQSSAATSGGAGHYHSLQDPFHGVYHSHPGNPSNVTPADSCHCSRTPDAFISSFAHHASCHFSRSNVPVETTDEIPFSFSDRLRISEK
Assay: MALT1 Biochemical Protease Assay
Details: 10 nM FL MALT1, 200 μM Ac-LRSR-AMC, 50 min pre-incubation, 4 h at RT; read-out: MALT1_Biochemical activity (Ac-LRSR-amc) IC50
Experimental: MALT1 protease activity was assessed in an in vitro assay using a tetrapeptide as substrate and full-length MALT1 protein (Strep-MALT1(1-824)-His) purified from baculovirus-infected insect cells. The tetrapeptide LRSR is coupled to AMC (7-amino-4-methylcoumarin) and provides a quenched, fluorescent substrate for the MALT1 protease (SM Biochemicals). Cleavage of AMC from the Arginine residue results in an increase in coumarin fluorescence measured at 460 nm (excitation 355 nm). The final assay buffer consisted of 10 nM FL MALT1 protein, 200 μM Ac-LRSR-AMC, 50 mM Tris pH 7.5, 0.6 M Citrate, 1 mM DTT, 1 mM EDTA, 0.05% BSA and 1.5% DMSO. Test compounds were spotted at 50 nL in 100% DMSO per well of a black 384-Proxiplate (Perkin Elmer). Test compound concentrations ranged from 30 μM to 0.5 nM using 11 dilution steps (1:3). Background signal was measured from control wells containing assay buffer without enzyme which functions as low control (LC). High control (HC) values were generated using the reaction with enzyme but no compound treatment. Compounds were pre-incubated with MALT1 enzyme for 50 minutes at RT. Substrate was added subsequently and fluorescence was measured in Labsystems fluoroskan at excitation 355 nm and emission 460 nm to determine time 0. The reaction was subsequently incubated for 4 h at RT and fluorescence was measured. For IC50 calculations, timepoint 0 was subtracted from the 4 h timepoint to correct for any potential autofluorescence of the compounds. The enzyme reaction was linear during the 4 h incubation period. Characterization of the substrate Ac-LRSR-AMC determined the Michaelis constant KM at 200 μM.
IC50 values were calculated using the following formula (Z prime should be >0.5): […]
A best-fit curve was fitted by a minimum sum of squares method to the plot of % Controlmin vs. compound concentration. From this an IC50 value (inhibitory concentration causing 50% inhibition) can be obtained. An estimate of the slope of the plot in terms of the Hill coefficient was also obtained.
Used in “Lexis Dose Response Curve Fitting” Version 1.0.

IC50 [µM]	Compound
0.6	COC(C)c1c(NC(=O)Nc2cnc(-n3nccn3)c(Cl)c2)cncc1C1CC1 (racemic) [Co. 28]
2.69	CNc1ncc(NC(=O)Nc2cnc(-n3nccn3)c(Cl)c2)c([C@@H](C)OC)c1Br (single isomer, unassigned) [Co. 154]
0.19	CO[C@@H](C)c1c(C#N)cncc1NC(=O)Nc1cnc(-n2nccn2)c(Cl)c1 [Co. 26]
3.24	CCOC(=O)COc1cncc(NC(=O)Nc2cnc(-n3nccn3)c(Cl)c2)c1C(C)OC (racemic) [Co. 14]
0.05	COC(C)c1c(NC(=O)Nc2cnc(-n3nccn3)c(Cl)c2)cnc(C)c1Br (stereo not drawn) [Co. 40]

The remaining lines, values behind:

Compound	IC50 [µM]
COC(C)c1c(NC(=O)Nc2cnc(-n3nccn3)c(C(F)(F)F)c2)cnc(C(F)F)c1C#N (single isomer, unassigned) [Co. 128]	0.23
CO[C@H](C)c1c(NC(=O)Nc2cnc(-n3nccn3)c(C(F)(F)F)c2)cnc(C)c1C#N [Co. 100]	0.03
CO[C@@H](C)c1c(NC(=O)Nc2cnc(C3CC3)c(Cl)c2)cnc(C)c1Br [Co. 56]	2.51
CO[C@@H](C)c1c(NC(=O)Nc2cnc(OC(F)F)c(Cl)c2)cnc(C)c1Cl [Co. 73]	0.08
COc1nc(-n2nccn2)c(Cl)cc1NC(=O)Nc1cnc(C)c(C#N)c1[C@H](C)OC [Co. 80]	0.05
CO[C@@H](c1c(NC(=O)Nc2cnc(-n3nccn3)c(C(F)(F)F)c2)cnc(C)c1Cl)C1CC1 (single isomer, unassigned) [Co. 143]	0.05
CO[C@@H](C)c1c(NC(=O)Nc2cnc(-n3nccn3)c(C(F)(F)F)c2)cnc(C(F)F)c1Cl (single isomer, unassigned) [Co. 133]	0.55
COc1nc(-n2nccn2)c(Cl)cc1NC(=O)Nc1cnc(C)c(Cl)c1[C@H](C)OC [Co. 83]	0.35
COC(C)c1c(NC(=O)Nc2cnc(-n3nccn3)c(C(F)(F)F)c2)cnc(C)c1Br (single isomer, unassigned) [Co. 59]	0.01

Tested on: secretion of IL6 by OCI-LY3 ABC-DLBCL cells
Assay: Human IL6 Mesoscale assay (OCI-LY3)
Type: cell-based
Details: 24 h incubation, IL6 in supernatant
Experimental: (§1) NFKB signaling regulates the secretion of multiple cytokines, including IL6 and IL10. Secretion of the cytokines IL6 and IL10 by OCI-LY3 ABC-DLBCL cells was measured using a mesoscale assay. Inhibition of NFKB signaling by MALT1 inhibitors results in a decrease of IL6/10 secretion.
(§2) OCI-LY3 cells were propagated in RPMI-1640 (Sigma Aldrich) supplemented with 10% fetal bovine serum (HyClone), 1 mM sodium pyruvate (Invitrogen), 2 mM L-glutamine (Sigma Aldrich) and 1% PenStrep (Sigma Aldrich). Cell passage number should not exceed 30. Cells should be kept between 0.5-2.5 million cells per mL during culturing and cells should be supplemented every 2-3 days with fresh 50 μM beta-mercaptoethanol. No beta-mercaptoethanol was used during the mesoscale assay.
(§3) For the Mesoscale assay, 100,000 OCI-LY3 cells were seeded per well into black-colored 96-well plates with clear bottom (Corning #3904) and test compounds were added in 9 dilution steps (1:2) ranging from 15 μM to 58.6 nM (final DMSO concentration 0.3%). DMSO control wells were used to determine the maximum signal (High Control (HC)). Treatment with the BTK inhibitor RN486 in a dose range from 30 nM to […] (9 dilutions of 1:2) served as a positive control for NFKB pathway inhibition and was used to determine the maximum inhibition (Low Control (LC)). Compounds and cells were incubated for 24 h at 37° C. and 5% CO2 (assay volume is 150 μL). After 24 h of incubation 50 μL of the supernatant was transferred to a MSD plate (V-Plex Proinflammation Panel 1 (human) kit, Mesoscale (MSD)) and incubated for 2 h with vigorous shaking (600 rpm) at room temperature. Following incubation, plates were washed 3× with PBS+0.05% Tween-20 and 25 μL detection antibody solution (IL6 & IL10 antibodies in diluent 3 (MSD)) was added per well followed by 2 h of incubation with vigorous shaking (600 rpm) at room temperature. After 3× washes with PBS+0.05% Tween-20, plates were incubated with 150 μL 2× Read Buffer T and read on SECTOR imager.

IC50 [µM]	Compound
1.95	COC(C)c1c(NC(=O)Nc2cnc(-n3nccn3)c(Cl)c2)cncc1C1CC1 (racemic) [Co. 28]
0.26	CO[C@@H](C)c1c(C#N)cncc1NC(=O)Nc1cnc(-n2nccn2)c(Cl)c1 [Co. 26]
11	CCOC(=O)COc1cncc(NC(=O)Nc2cnc(-n3nccn3)c(Cl)c2)c1C(C)OC (racemic) [Co. 14]
0.1	COC(C)c1c(NC(=O)Nc2cnc(-n3nccn3)c(Cl)c2)cnc(C)c1Br (stereo not drawn) [Co. 40]

Second part, the compound before the results:

Compound	IC50 [µM]
COC(C)c1c(NC(=O)Nc2cnc(-n3nccn3)c(C(F)(F)F)c2)cnc(C(F)F)c1C#N (single isomer, unassigned) [Co. 128]	0.46
CO[C@H](C)c1c(NC(=O)Nc2cnc(-n3nccn3)c(C(F)(F)F)c2)cnc(C)c1C#N [Co. 100]	0.09
CO[C@@H](C)c1c(NC(=O)Nc2cnc(C3CC3)c(Cl)c2)cnc(C)c1Br [Co. 56]	> 15
CO[C@@H](C)c1c(NC(=O)Nc2cnc(OC(F)F)c(Cl)c2)cnc(C)c1Cl [Co. 73]	0.11
COc1nc(-n2nccn2)c(Cl)cc1NC(=O)Nc1cnc(C)c(C#N)c1[C@H](C)OC [Co. 80]	0.15
COc1nc(-n2nccn2)c(Cl)cc1NC(=O)Nc1cnc(C)c(Cl)c1[C@H](C)OC [Co. 83]	0.5
COC(C)c1c(NC(=O)Nc2cnc(-n3nccn3)c(C(F)(F)F)c2)cnc(C)c1Br (single isomer, unassigned) [Co. 59]	0.1

Same assay, conditions: Homo sapiens, 24 h incubation, IL6 in supernatant

IC50 [µM]	Compound
1.1	CNc1ncc(NC(=O)Nc2cnc(-n3nccn3)c(Cl)c2)c([C@@H](C)OC)c1Br (single isomer, unassigned) [Co. 154]
0.08	CO[C@@H](c1c(NC(=O)Nc2cnc(-n3nccn3)c(C(F)(F)F)c2)cnc(C)c1Cl)C1CC1 (single isomer, unassigned) [Co. 143]
0.93	CO[C@@H](C)c1c(NC(=O)Nc2cnc(-n3nccn3)c(C(F)(F)F)c2)cnc(C(F)F)c1Cl (single isomer, unassigned) [Co. 133]

Tested on: secretion of IL10 by OCI-LY3 ABC-DLBCL cells
Assay: Human IL10 Mesoscale assay (OCI-LY3)
Type: cell-based
Details: 24 h incubation, IL10 in supernatant
Experimental: as §1, §2, §3

IC50 [µM]	Compound
1.1	COC(C)c1c(NC(=O)Nc2cnc(-n3nccn3)c(Cl)c2)cncc1C1CC1 (racemic) [Co. 28]
0.12	CO[C@@H](C)c1c(C#N)cncc1NC(=O)Nc1cnc(-n2nccn2)c(Cl)c1 [Co. 26]
8.13	CCOC(=O)COc1cncc(NC(=O)Nc2cnc(-n3nccn3)c(Cl)c2)c1C(C)OC (racemic) [Co. 14]
0.08	COC(C)c1c(NC(=O)Nc2cnc(-n3nccn3)c(Cl)c2)cnc(C)c1Br (stereo not drawn) [Co. 40]

The remaining lines, values behind:

Compound	IC50 [µM]
COC(C)c1c(NC(=O)Nc2cnc(-n3nccn3)c(C(F)(F)F)c2)cnc(C(F)F)c1C#N (single isomer, unassigned) [Co. 128]	0.21
CO[C@H](C)c1c(NC(=O)Nc2cnc(-n3nccn3)c(C(F)(F)F)c2)cnc(C)c1C#N [Co. 100]	0.06
CO[C@@H](C)c1c(NC(=O)Nc2cnc(C3CC3)c(Cl)c2)cnc(C)c1Br [Co. 56]	9.33
CO[C@@H](C)c1c(NC(=O)Nc2cnc(OC(F)F)c(Cl)c2)cnc(C)c1Cl [Co. 73]	0.06
COc1nc(-n2nccn2)c(Cl)cc1NC(=O)Nc1cnc(C)c(C#N)c1[C@H](C)OC [Co. 80]	0.09
COc1nc(-n2nccn2)c(Cl)cc1NC(=O)Nc1cnc(C)c(Cl)c1[C@H](C)OC [Co. 83]	0.18
COC(C)c1c(NC(=O)Nc2cnc(-n3nccn3)c(C(F)(F)F)c2)cnc(C)c1Br (single isomer, unassigned) [Co. 59]	0.07

Same assay, conditions: Homo sapiens, 24 h incubation, IL10 in supernatant

IC50 [µM]	Compound
0.71	CNc1ncc(NC(=O)Nc2cnc(-n3nccn3)c(Cl)c2)c([C@@H](C)OC)c1Br (single isomer, unassigned) [Co. 154]
0.05	CO[C@@H](c1c(NC(=O)Nc2cnc(-n3nccn3)c(C(F)(F)F)c2)cnc(C)c1Cl)C1CC1 (single isomer, unassigned) [Co. 143]
0.31	CO[C@@H](C)c1c(NC(=O)Nc2cnc(-n3nccn3)c(C(F)(F)F)c2)cnc(C(F)F)c1Cl (single isomer, unassigned) [Co. 133]
